Measured values: US5208032A, “Increasing the growth of turkeys using implant of 19-nortestosterone” (Rutgers, The State University of New Jersey, priority 1992, dated 1993)

Columns and labels:
[1] = Comparison of growth in treated female turkeys (Study II, Table IV); type: in vivo, Large White Nicholas turkeys; parameters: Abdominal Adipose: unit not given here; conditions: intact female; for Feed/Gain Ratio: 6 through 9 weeks; for Abdominal Adipose (%) / Feed/Gain Ratio (%) / Right Breast Muscle (%) / Average Daily Gain (%) / Final 9-Week Body Weight (%): change vs placebo; for Abdominal Adipose (%) / Feed/Gain Ratio (%): unsigned (decrease); for Right Breast Muscle (%) / Average Daily Gain (%) / Final 9-Week Body Weight (%): unsigned (increase)
Method: (§1) The same large white strain of turkey (received 1 day posthatching from Nicholas Breeding Farms, CA) was used in all studies. Poults were reared in deep litter brooder pens from 1 day posthatch and exposed to constant light until initiation of Studies I and III or through completion in the case of Study II. Studies I and III were conducted in an environmentally controlled room (photoperiod 12L:12D) with birds housed individually in wire-floored layer cages (space dimensions of 0.31 W×0.46 L×0.53 H meters per cage). Water and feed (Agway Game and Turkey Starter Crumbles) was available at all times. Turkeys were rank ordered by weight and distributed into treatment groups of equal mean body weights at the start of each Study (I, II and III).
(§2) Body weight determinations were made at the second and final week of each study, and several organs and tissues were excised and immediately weighed at the time of necropsy. Final shank-toe length, as an indicator of skeletal growth, was also determined. Birds were sacrificed via exanguination by laceration of the jugular vein. Specific details on the experimental design and conduct of each turkey study will follow.
At 6 weeks of age, seventy-seven female turkeys were rank ordered by weight and assigned to 7 treatment groups (11 birds per group) of equal mean weights. Within treatment groups, birds were further allotted to deep-litter pens (3.66×4.27 m) containing 4 subdivisions (0.91×1.22 m), with 3 birds per subdivision except for the last which contained 2. Individual treatment units (or pen subdivisions) were randomized (planned) among pens within the building, such that each pen contained 4 different treatment units (3 or 2 birds each). Feed consumption for each treatment unit was measured; thus, 4 replicates per treatment for feed consumption and feed/gain ratios (or feed efficiency) were calculated.
Treatments entailed the subcutaneous implantation (between the shoulders) of testosterone, 5-alpha-DHT or 19-nortestosterone as either a low (5-mg) or high (50-mg) dose pellet (Innovative Research of America, Rockville, Md.). Implants were specially constructed (steroid compressed into a methylcellulose/lactose pellet) to release respective steroids at a constant rate over a 21 day period (manufacturer statement). In support, a recent report by Satyaswaroop et al. (1984) on mice, found Innovative Research 17 beta-estradiol pellets to have excellent 21-day continued release characteristics (i.e., maintained blood levels of 20-30 ng/ml for 21 days). Group 1 controls were composed of females implanted with a 50-mg placebo pellet. The remaining 6 female treatment groups were as follows: Group 2, testosterone (5-mg); Group 3, 5-alpha-DHT (5-mg); Group 4, 19-nortestosterone (5-mg); Group 5, testosterone (50-mg); Group 6, 5-alpha-DHT (50-mg) and Group 7, 19-nortestosterone (50-mg). Excluding feed efficiency, data means for all other parameters were compared between treatments using individual birds as replicates (n=11). Data means for feed consumption and feed efficiency were compared between treatments using pen subdivisions (3 or 2 birds/subdivision) as replicates (n=8).
^a 5 or 50mg slow release pellets (Innovative Research) administered
subcutaneously at 6 weeks of age.
^b Data for Feed to Gain Ratio is computed for the period 6 through 9
weeks of age. Experimental units are floor pens (n = 4) of […]
values are means and SEM of the pen averages.

[2] = Comparison of growth on treated male turkeys (Study I, Table V); type: in vivo, Large White Nicholas turkeys; parameters: Abdominal Adipose: unit not given here; conditions: intact male; for Feed/Gain Ratio: n = 4; for Abdominal Adipose (%) / Average Daily Gain (%) / Final 10-Week Body Weight (%) / Right Breast Muscle (%) / Feed Efficiency: change vs placebo; for Abdominal Adipose (%): unsigned (decrease); for Average Daily Gain (%) / Final 10-Week Body Weight (%) / Right Breast Muscle (%): unsigned (increase); for Feed Efficiency: column head prints (g), cells %
Method: as §1, §2
At 7 weeks of age, forty-nine male turkeys were rank ordered by weight and assigned to 7 treatment groups ([…]) of equal mean weights. Within treatment groups, two birds were individually caged (layer cages measuring 0.31 W×0.46 L×0.53 H meters/cage) side by side on one of three tiers (5 cages/tier and 3 tiers/rack). […] Individual treatment units (or bird sets) were randomized (planned) into cages among tiers and racks to eliminate any rack (5) or tier (3 vertical) effects within the room.
Group 1 control males were implanted with a 50-mg compressed (methylcellulose/lactose) placebo pellet. The remaining 6 treatment groups were as follows: Group 2, 50-mg testosterone pellet; Group 3, 50-mg 5-alpha-DHT pellet; Group 4, 50-mg 19-nortestosterone pellet; Group 5, 5.0-cm testosterone Silastic polysiloxane capsule; Group 6, 5-cm 5-alpha-DHT Silastic polysiloxane capsule and Group 7, 5.0-cm 19-nortestosterone Silastic polysiloxane capsule. Excluding feed efficiency, data means for all parameters were compared between treatments using individual birds as replicates (n=8). Data means for feed efficiency were compared between treatments using sets of birds as replicates (n=4).

## C[C@]12CC[C@H]3[C@@H](CCC4=CC(=O)CC[C@@H]43)[C@@H]1CC[C@@H]2O [19-Nortestosterone, 19-nortestosterone]
[1]; 5-mg pellet
  Abdominal Adipose: 22.8
  Average Daily Gain: 108 ± 3 g
  Final 9-Week Body Weight: 4115 ± 122 g
  Final 9-Week Shank-Toe Length: 18.87 ± 0.25 cm
  Right Breast Muscle: 439 ± 15 g
  Feed/Gain Ratio: 1.92 ± 0.04
  Abdominal Adipose (%): 23%
  Feed/Gain Ratio (%): 9.0%
  Right Breast Muscle (%): 12.6%
[1]; 50-mg pellet
  Abdominal Adipose: 18.7
  Average Daily Gain: 127 ± 3 g
  Final 9-Week Body Weight: 4476 ± 94 g
  Final 9-Week Shank-Toe Length: 18.31 ± 0.24 cm
  Right Breast Muscle: 493 ± 17 g
  Feed/Gain Ratio: 1.76 ± 0.07
  Abdominal Adipose (%): 37%
  Feed/Gain Ratio (%): 16.6%
  Average Daily Gain (%): 23.3%
  Final 9-Week Body Weight (%): 11.6%
  Right Breast Muscle (%): 26.4%
[2]; 5-cm Silastic capsule
  Abdominal Adipose: 7.88 ± 2.10
  Average Daily Gain: 131 ± 3 g
  Final 10-Week Body Weight: 5410 ± 73 g
  Final 10-Week Shank-Toe Length: 23.5 ± 0.15 cm
  Right Breast Muscle: 513 ± 15 g
  Feed/Gain Ratio: 1.94 ± 0.041
[2]; 5-cm capsule
  Abdominal Adipose (%): 52.8%
  Average Daily Gain (%): 20.2%
  Final 10-Week Body Weight (%): 10.2%
  Right Breast Muscle (%): 12.6%
  Feed Efficiency: 23.6%
[2]; 50-mg pellet
  Abdominal Adipose: 6.74 ± 1.57
  Average Daily Gain: 132 ± 6 g
  Final 10-Week Body Weight: 5416 ± 136 g
  Final 10-Week Shank-Toe Length: 23.3 ± 0.22 cm
  Right Breast Muscle: 529 ± 22 g
  Feed/Gain Ratio: 1.99 ± 0.091
  Abdominal Adipose (%): 59.6%
  Average Daily Gain (%): 21.1%
  Final 10-Week Body Weight (%): 10.3%
  Right Breast Muscle (%): 23.3%
  Feed Efficiency: 21.6%

## C[C@]12CCC(=O)C[C@@H]1CC[C@@H]1[C@@H]2CC[C@]2(C)[C@@H](O)CC[C@@H]12 [5-alpha-DHT, 5-alpha-dihydrotestosterone]
[1]; 5-mg pellet
  Abdominal Adipose: 21.4
  Average Daily Gain: 106 ± 2 g
  Final 9-Week Body Weight: 4073 ± 72 g
  Final 9-Week Shank-Toe Length: 18.6 ± 0.21 cm
  Right Breast Muscle: 415 ± 7 g
  Feed/Gain Ratio: 2.03 ± 0.03
  Abdominal Adipose (%): 28%
[1]; 50-mg pellet
  Abdominal Adipose: 20.2
  Average Daily Gain: 121 ± 3 g
  Final 9-Week Body Weight: 4365 ± 84 g
  Final 9-Week Shank-Toe Length: 18.79 ± 0.25 cm
  Right Breast Muscle: 487 ± 13 g
  Feed/Gain Ratio: 1.82 ± 0.03
  Abdominal Adipose (%): 32%
  Feed/Gain Ratio (%): 13.7%
  Average Daily Gain (%): 17.5%
  Final 9-Week Body Weight (%): 8.9%
  Right Breast Muscle (%): 24.9%
[2]; 5-cm Silastic capsule
  Abdominal Adipose: 12.2 ± 1.44
  Average Daily Gain: 113 ± 3 g
  Final 10-Week Body Weight: 4985 ± 60 g
  Final 10-Week Shank-Toe Length: 24.4 ± 0.15 cm
  Right Breast Muscle: 465 ± 17 g
  Feed/Gain Ratio: 2.30 ± 0.120
[2]; 5-cm capsule
  Right Breast Muscle (%): 8.4%
  Feed Efficiency: 9.4%
[2]; 50-mg pellet
  Abdominal Adipose: 9.53 ± 1.12
  Average Daily Gain: 120 ± 3 g
  Final 10-Week Body Weight: 5202 ± 44 g
  Final 10-Week Shank-Toe Length: 24.3 ± 0.28 cm
  Right Breast Muscle: 460 ± 10 g
  Feed/Gain Ratio: 2.33 ± 0.079
  Average Daily Gain (%): 10.1%
  Final 10-Week Body Weight (%): 6.0%
  Right Breast Muscle (%): 7.2%

## C[C@]12CC[C@H]3[C@@H](CCC4=CC(=O)CC[C@@]43C)[C@@H]1CC[C@@H]2O [Testosterone, testosterone]
[1]; 5-mg pellet
  Abdominal Adipose: 20.2
  Average Daily Gain: 108 ± 2 g
  Final 9-Week Body Weight: 4096 ± 65 g
  Final 9-Week Shank-Toe Length: 18.9 ± 0.16 cm
  Right Breast Muscle: 430 ± 15 g
  Feed/Gain Ratio: 2.01 ± 0.05
  Abdominal Adipose (%): 32%
[1]; 50-mg pellet
  Abdominal Adipose: 22.8
  Average Daily Gain: 119 ± 3 g
  Final 9-Week Body Weight: 4320 ± 69 g
  Final 9-Week Shank-Toe Length: 18.6 ± 0.13 cm
  Right Breast Muscle: 477 ± 17 g
  Feed/Gain Ratio: 1.91 ± 0.04
  Abdominal Adipose (%): 23%
  Feed/Gain Ratio (%): 9.5%
  Average Daily Gain (%): 15.5%
  Final 9-Week Body Weight (%): 7.7%
  Right Breast Muscle (%): 22.3%
[2]; 5-cm Silastic capsule
  Abdominal Adipose: 13.2 ± 3.57
  Average Daily Gain: 115 ± 2 g
  Final 10-Week Body Weight: 5055 ± 61 g
  Final 10-Week Shank-Toe Length: 24.2 ± 0.18 cm
  Right Breast Muscle: 457 ± 20 g
  Feed/Gain Ratio: 2.39 ± 0.088
[2]; 50-mg pellet
  Abdominal Adipose: 11.61 ± 1.37
  Average Daily Gain: 116 ± 4 g
  Final 10-Week Body Weight: 5100 ± 82 g
  Final 10-Week Shank-Toe Length: 23.6 ± 0.19 cm
  Right Breast Muscle: 450 ± 10 g
  Feed/Gain Ratio: 2.37 ± 0.086
